From PubChem BioAssay AID248 (DTP/NCI, 2004)
Several values for one entry are separate records, joined by “and”; a condition that tells them apart may be missing. Equal entries are not always repeated. Inconclusive results and toxic doses are left out. No stated cut-off is given here; in the data, active means T/C of 150% or more; inactive means T/C below 125%.

System: L1210 leukemia ip in BDF1 mice, survival T/C
Test: NCI In Vivo Anticancer Drug Screen. Data for tumor model L1210 Leukemia (intraperitoneal) in B6D2F1 (BDF1) mice
Conditions: endpoint: mean survival time, higher = longer survival
Procedure, shortened: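 Value reflects the ratio of survival in compound-treated mice to survival in vehicle-treated controls, with both groups carrying the same transplanted tumor.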

[1] = dose: 100.0 mg/kg/injection, schedule: Q01DX009 (ip), vehicle: saline with Tween-80
[2] = dose: 200.0 mg/kg/injection, schedule: Q01DX009 (ip), vehicle: saline with Tween-80
[3] = dose: 400.0 mg/kg/injection, schedule: Q01DX009 (ip), vehicle: saline with Tween-80
[4] = dose: 100.0 mg/kg/injection, schedule: Q01DX009 (ip), vehicle: Klucel (hydroxypropylcellulose) (HPC)
[5] = dose: 100.0 mg/kg/injection, schedule: Q04DX003 (ip), vehicle: Klucel (hydroxypropylcellulose) (HPC)
[6] = dose: 200.0 mg/kg/injection, schedule: Q01DX009 (ip), vehicle: Klucel (hydroxypropylcellulose) (HPC)
[7] = dose: 200.0 mg/kg/injection, schedule: Q04DX003 (ip), vehicle: Klucel (hydroxypropylcellulose) (HPC)
[8] = dose: 400.0 mg/kg/injection, schedule: Q01DX009 (ip), vehicle: Klucel (hydroxypropylcellulose) (HPC)
[9] = dose: 400.0 mg/kg/injection, schedule: Q04DX003 (ip), vehicle: Klucel (hydroxypropylcellulose) (HPC)
[10] = dose: 100.0 mg/kg/injection, schedule: Q01DX001 (ip), vehicle: saline
[11] = dose: 200.0 mg/kg/injection, schedule: Q01DX001 (ip), vehicle: saline
[12] = dose: 400.0 mg/kg/injection, schedule: Q01DX001 (ip), vehicle: saline
[13] = dose: 100.0 mg/kg/injection, schedule: Q01DX001 (ip), vehicle: carboxymethylcellulose (CMC)
[14] = dose: 200.0 mg/kg/injection, schedule: Q01DX001 (ip), vehicle: carboxymethylcellulose (CMC)
[15] = dose: 400.0 mg/kg/injection, schedule: Q01DX001 (ip), vehicle: carboxymethylcellulose (CMC)
[16] = dose: 75.0 mg/kg/injection, schedule: Q01DX001 (ip), vehicle: other

Measured: T/C

COc1ccc(C)cc1NC(=S)NC(=O)/C=C/c1ccccc1
inactive: dose: 100.0 mg/kg/injection, schedule: Q01DX001 (ip), vehicle: saline with Tween-80 90 % of control | [1] 93 % of control and 100 % of control | dose: 100.0 mg/kg/injection, schedule: Q04DX002 (ip), vehicle: saline with Tween-80 93 % of control and 94 % of control | dose: 100.0 mg/kg/injection, schedule: Q04DX003 (ip), vehicle: saline with Tween-80 91 % of control | dose: 200.0 mg/kg/injection, schedule: Q01DX001 (ip), vehicle: saline with Tween-80 91 % of control | [2] 93 % of control and 88 % of control | dose: 200.0 mg/kg/injection, schedule: Q04DX002 (ip), vehicle: saline with Tween-80 94 % of control and 90 % of control | dose: 200.0 mg/kg/injection, schedule: Q04DX003 (ip), vehicle: saline with Tween-80 93 % of control | dose: 400.0 mg/kg/injection, schedule: Q01DX001 (ip), vehicle: saline with Tween-80 90 % of control | [3] 100 % of control and 103 % of control | dose: 400.0 mg/kg/injection, schedule: Q04DX002 (ip), vehicle: saline with Tween-80 97 % of control and 89 % of control | dose: 400.0 mg/kg/injection, schedule: Q04DX003 (ip), vehicle: saline with Tween-80 91 % of control

O=C(NC1c2cc(Cl)ccc2-c2c(Cl)cc(Cl)cc21)C12CC3CC(CC(C3)C1)C2 (stereo not given)
inactive: [4] 96 % of control | [5] 100 % of control | [6] 97 % of control | [7] 93 % of control | [8] 104 % of control | [9] 96 % of control

CCNP(=O)(CCl)NC12CC3CC(CC(C3)C1)C2 (stereo not given)
inactive: dose: 50.0 mg/kg/injection, schedule: Q01DX009 (ip), vehicle: Klucel (hydroxypropylcellulose) (HPC) 91 % of control | [4] 93 % of control | [6] 93 % of control

O=[N+]([O-])c1ccc(N/N=C/CCc2ccccc2O)c([N+](=O)[O-])c1
inactive: dose: 50.0 mg/kg/injection, schedule: Q01DX001 (ip), vehicle: saline 112 % of control | [10] 98 % of control | [11] 93 % of control | [12] 98 % of control

COc1ccc(COC(=O)Nc2ccc(Br)cc2)c(OC)c1
inactive: [4] 98 % of control | [6] 104 % of control | [8] 101 % of control

CCc1ccc(N=Nc2c(F)c(F)c(N(C)C)c(F)c2F)cc1
inactive: [13] 102 % of control | [14] 100 % of control | [15] 100 % of control

CCOc1ccccc1NC(=O)Nc1ccccc1OC
inactive: [4] 103 % of control | [5] 103 % of control | [6] 98 % of control | [7] 96 % of control | [8] 98 % of control | [9] 100 % of control

CC(=O)c1ccc(NC(=S)Nc2ccc(C(C)=O)cc2)cc1
inactive: dose: 5.0 mg/kg/injection, schedule: Q01DX009 (ip), vehicle: saline with Tween-80 87 % of control | dose: 10.0 mg/kg/injection, schedule: Q01DX009 (ip), vehicle: saline with Tween-80 103 % of control | dose: 20.0 mg/kg/injection, schedule: Q01DX009 (ip), vehicle: saline with Tween-80 98 % of control and 115 % of control | dose: 40.0 mg/kg/injection, schedule: Q01DX009 (ip), vehicle: saline with Tween-80 97 % of control and 102 % of control | dose: 80.0 mg/kg/injection, schedule: Q01DX009 (ip), vehicle: saline with Tween-80 86 % of control | dose: 84.0 mg/kg/injection, schedule: Q01DX009 (ip), vehicle: saline with Tween-80 98 % of control | dose: 320.0 mg/kg/injection, schedule: Q01DX009 (ip), vehicle: saline with Tween-80 102 % of control

CCCCCCCCCCCCCCCCC(=O)O.[Pb]
inactive: [16] 94 % of control | dose: 150.0 mg/kg/injection, schedule: Q01DX001 (ip), vehicle: other 92 % of control | dose: 300.0 mg/kg/injection, schedule: Q01DX001 (ip), vehicle: other 92 % of control

CCc1ccc(CC(=S)N2CCOCC2)cc1
inactive: [13] 101 % of control | [14] 95 % of control | [15] 109 % of control

O=C(CCCl)OCC#CCOC(=O)CCCl
inactive: [1] 101 % of control | [2] 94 % of control

CN(C)C(=O)Sc1ccc(S(=O)(=O)F)cc1[N+](=O)[O-]
inactive: [4] 110 % of control | [6] 102 % of control

CC(C)(NC(=O)NCCCl)C(=O)O
inactive: dose: 100.0 mg/kg/injection, schedule: Q01DX001 (ip), vehicle: Klucel (hydroxypropylcellulose) (HPC) 105 % of control | dose: 200.0 mg/kg/injection, schedule: Q01DX001 (ip), vehicle: Klucel (hydroxypropylcellulose) (HPC) 96 % of control | dose: 400.0 mg/kg/injection, schedule: Q01DX001 (ip), vehicle: Klucel (hydroxypropylcellulose) (HPC) 94 % of control

NC(=O)N/N=C/c1ccccc1
inactive: [4] 96 % of control | dose: 100.0 mg/kg/injection, schedule: Q04DX002 (ip), vehicle: Klucel (hydroxypropylcellulose) (HPC) 89 % of control | [6] 96 % of control | dose: 200.0 mg/kg/injection, schedule: Q04DX002 (ip), vehicle: Klucel (hydroxypropylcellulose) (HPC) 100 % of control | [8] 111 % of control | dose: 400.0 mg/kg/injection, schedule: Q04DX002 (ip), vehicle: Klucel (hydroxypropylcellulose) (HPC) 104 % of control

Cc1ccc(S(=O)(=O)C2=CC(=O)c3ccccc3C2=O)cc1
inactive: [16] 88 % of control

C[N+](C)(C)C1CCCCCCC(=O)NC1 (stereo not given)
inactive: dose: 75.0 mg/kg/injection, schedule: Q01DX009 (ip), vehicle: saline 101 % of control | dose: 150.0 mg/kg/injection, schedule: Q01DX009 (ip), vehicle: saline 92 % of control | dose: 300.0 mg/kg/injection, schedule: Q01DX009 (ip), vehicle: saline 109 % of control

COc1cc2cc3c4cc(OC)c(OC)cc4cc[n+]3cc2cc1OC
inactive: dose: 10.0 mg/kg/injection, schedule: Q01DX009 (ip), vehicle: saline 92 % of control | dose: 20.0 mg/kg/injection, schedule: Q01DX009 (ip), vehicle: saline 116 % of control | dose: 40.0 mg/kg/injection, schedule: Q01DX009 (ip), vehicle: saline 118 % of control | dose: 80.0 mg/kg/injection, schedule: Q01DX009 (ip), vehicle: saline 110 % of control | dose: 160.0 mg/kg/injection, schedule: Q01DX009 (ip), vehicle: saline 113 % of control | dose: 320.0 mg/kg/injection, schedule: Q01DX009 (ip), vehicle: saline 93 % of control

C[C@@H]1CC2=CC(=O)CC[C@]2(C)[C@H]2CC[C@]3(C)[C@@H](O)CC[C@H]3[C@H]12
inactive: [1] 92 % of control | [2] 112 % of control | [3] 100 % of control

Nc1nc2c(c(-c3ccccc3)n1)CN(CCC(=O)O)C2=O
inactive: [10] 103 % of control | dose: 100.0 mg/kg/injection, schedule: Q04DX003 (ip), vehicle: saline 98 % of control | [11] 107 % of control | dose: 200.0 mg/kg/injection, schedule: Q04DX003 (ip), vehicle: saline 100 % of control | [12] 100 % of control | dose: 400.0 mg/kg/injection, schedule: Q04DX003 (ip), vehicle: saline 98 % of control

O=C(Nc1cccc([N+](=O)[O-])c1)c1ccc(Cl)cc1
inactive: dose: 100.0 mg/kg/injection, schedule: Q04DX003 (ip), vehicle: gum acacia 101 % of control | dose: 200.0 mg/kg/injection, schedule: Q04DX003 (ip), vehicle: gum acacia 95 % of control | dose: 400.0 mg/kg/injection, schedule: Q04DX003 (ip), vehicle: gum acacia 101 % of control
